Measurements taken from patent publication US10513521B2, “Compositions and methods for inhibiting BMP” (The Brigham and Women's Hospital, Inc., priority 2014, dated 2019).
Residue numbers refer to the chain shown, from its start. Where “and” joins values, the source holds several entries; their conditions need not be identical. Equal values may be shown once.

Legend:
[1] = biological target: T1, ALK2 (Mus musculus, UniProt P37172); assay: HTRF pSMAD1 cell-based ALK2 assay (C2C12 cells, BMP6 as agonist); conditions: cell-based assay, BMP6; read-out: Cell IC50 BMP6
T1 construct: The C2C12 cell line was selected for the measurement of ALK2 activity using BMP6 as the agonist; host or cells: C2C12
T1 sequence (P37172 21-509): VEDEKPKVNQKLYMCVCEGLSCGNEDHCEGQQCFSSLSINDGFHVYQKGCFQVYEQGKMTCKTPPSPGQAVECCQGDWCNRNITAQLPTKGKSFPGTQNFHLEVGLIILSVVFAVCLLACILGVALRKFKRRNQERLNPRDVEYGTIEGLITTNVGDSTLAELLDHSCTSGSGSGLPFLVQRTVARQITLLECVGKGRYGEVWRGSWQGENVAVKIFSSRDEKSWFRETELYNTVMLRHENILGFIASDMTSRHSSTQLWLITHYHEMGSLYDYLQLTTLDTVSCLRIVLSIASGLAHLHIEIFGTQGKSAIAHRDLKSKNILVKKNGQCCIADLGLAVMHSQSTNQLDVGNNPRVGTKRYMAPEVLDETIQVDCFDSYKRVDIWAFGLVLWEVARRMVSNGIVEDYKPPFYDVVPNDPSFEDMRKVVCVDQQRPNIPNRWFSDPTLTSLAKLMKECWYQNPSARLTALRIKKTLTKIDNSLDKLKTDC
How it was run: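 Cells pre-starved, plated in 0.1% FBS medium for 4 h, compound added for 30 min, then stimulated 30 min with BMP9 (BAOEC) or BMP6 (C2C12). Phospho-SMAD1 measured by HTRF after overnight room-temperature detection incubation.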

[2] = Cell-based assay, TGFb1 (Cell IC50)
[3] = biological target: ALK1 (Homo sapiens, UniProt P37023); assay: TR-FRET enzymatic ALK kinase assay, ALK1
ALK1, sequence (P37023 22-503): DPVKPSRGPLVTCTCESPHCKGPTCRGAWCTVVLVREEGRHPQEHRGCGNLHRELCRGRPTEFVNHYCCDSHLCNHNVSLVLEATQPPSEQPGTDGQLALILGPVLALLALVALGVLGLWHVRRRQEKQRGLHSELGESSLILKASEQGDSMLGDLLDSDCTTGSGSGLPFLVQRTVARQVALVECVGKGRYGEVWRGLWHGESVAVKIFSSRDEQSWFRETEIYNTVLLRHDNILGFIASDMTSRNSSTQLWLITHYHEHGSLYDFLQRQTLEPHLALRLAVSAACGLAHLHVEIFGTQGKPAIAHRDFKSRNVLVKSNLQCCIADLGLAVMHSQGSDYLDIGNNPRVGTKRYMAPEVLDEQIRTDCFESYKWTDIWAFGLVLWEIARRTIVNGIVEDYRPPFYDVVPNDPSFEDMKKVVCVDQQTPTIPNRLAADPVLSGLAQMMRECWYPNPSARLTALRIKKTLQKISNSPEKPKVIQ
Experimental: (§1) Briefly, the ALKs enzymatic assay was initiated by dispense 2.5 μl enzyme in 1× kinase reaction buffer. The assay plate was then added with compounds followed by incubation at room temperature for 10 minutes. Then 2.5 μl/well substrate was added.

[4] = biological target: T2, ALK2 (Homo sapiens, UniProt Q04771); assay: TR-FRET enzymatic ALK kinase assay, ALK2
T2 sequence (Q04771 21-509): T1 sequence (P37172 21-509) with V1M, Q10P, I121L, E162D, S310P
Experimental: as §1

[5] = biological target: ALK3 (Homo sapiens, UniProt P36894); assay: TR-FRET enzymatic ALK kinase assay, ALK3
ALK3, sequence (P36894 24-532): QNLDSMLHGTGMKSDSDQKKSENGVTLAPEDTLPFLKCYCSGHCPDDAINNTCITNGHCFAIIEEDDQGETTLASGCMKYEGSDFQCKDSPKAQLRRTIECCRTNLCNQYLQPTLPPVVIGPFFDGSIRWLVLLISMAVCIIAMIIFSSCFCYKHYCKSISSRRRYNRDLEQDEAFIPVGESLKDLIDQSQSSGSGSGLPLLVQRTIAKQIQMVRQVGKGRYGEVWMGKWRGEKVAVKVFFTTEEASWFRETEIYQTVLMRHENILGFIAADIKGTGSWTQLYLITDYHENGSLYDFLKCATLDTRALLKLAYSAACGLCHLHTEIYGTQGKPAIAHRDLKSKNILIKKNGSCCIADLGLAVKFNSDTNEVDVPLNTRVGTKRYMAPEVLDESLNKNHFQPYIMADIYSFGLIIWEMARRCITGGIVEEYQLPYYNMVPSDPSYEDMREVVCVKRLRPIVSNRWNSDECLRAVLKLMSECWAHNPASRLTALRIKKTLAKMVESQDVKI
Experimental: as §1

[6] = biological target: T3, ALK4 (Homo sapiens, UniProt P36896); assay: TR-FRET enzymatic ALK kinase assay, ALK4
T3 sequence (P36896 24-505): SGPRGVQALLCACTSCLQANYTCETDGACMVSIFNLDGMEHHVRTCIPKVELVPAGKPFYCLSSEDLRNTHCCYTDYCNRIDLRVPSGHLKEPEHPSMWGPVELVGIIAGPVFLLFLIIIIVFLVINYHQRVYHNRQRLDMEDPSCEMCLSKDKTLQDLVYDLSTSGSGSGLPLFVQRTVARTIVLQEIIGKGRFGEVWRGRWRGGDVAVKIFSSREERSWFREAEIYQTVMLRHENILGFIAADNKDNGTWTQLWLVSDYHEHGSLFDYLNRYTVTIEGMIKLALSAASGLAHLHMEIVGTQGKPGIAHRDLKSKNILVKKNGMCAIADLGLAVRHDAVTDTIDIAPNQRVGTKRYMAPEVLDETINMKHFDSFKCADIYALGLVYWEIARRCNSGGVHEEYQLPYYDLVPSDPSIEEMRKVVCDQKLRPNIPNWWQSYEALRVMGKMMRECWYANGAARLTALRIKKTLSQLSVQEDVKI
Experimental: as §1

[7] = biological target: T4, ALK5 (Homo sapiens, UniProt P36897); assay: TR-FRET enzymatic ALK kinase assay, ALK5
T4 sequence (P36897 34-503): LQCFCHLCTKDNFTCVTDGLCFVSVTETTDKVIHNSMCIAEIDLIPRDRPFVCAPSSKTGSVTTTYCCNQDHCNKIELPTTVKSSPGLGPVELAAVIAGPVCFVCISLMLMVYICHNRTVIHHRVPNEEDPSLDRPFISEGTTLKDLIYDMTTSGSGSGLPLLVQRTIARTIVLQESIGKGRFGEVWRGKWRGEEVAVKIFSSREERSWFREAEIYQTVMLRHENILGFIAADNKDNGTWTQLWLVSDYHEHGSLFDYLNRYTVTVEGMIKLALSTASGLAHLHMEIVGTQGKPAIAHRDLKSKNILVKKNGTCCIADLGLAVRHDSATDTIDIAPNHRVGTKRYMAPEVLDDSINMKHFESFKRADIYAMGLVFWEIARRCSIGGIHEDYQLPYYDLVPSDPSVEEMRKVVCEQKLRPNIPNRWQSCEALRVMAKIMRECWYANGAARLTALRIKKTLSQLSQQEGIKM
Experimental: Six ALK kinase enzyme assays were developed for determination of compound activities on ALK1, ALK2, ALK3, ALK4, ALK5 and ALK6.
as §1

[8] = biological target: ALK6 (Homo sapiens, UniProt O00238); assay: TR-FRET enzymatic ALK kinase assay, ALK6
ALK6, sequence (O00238 14-502): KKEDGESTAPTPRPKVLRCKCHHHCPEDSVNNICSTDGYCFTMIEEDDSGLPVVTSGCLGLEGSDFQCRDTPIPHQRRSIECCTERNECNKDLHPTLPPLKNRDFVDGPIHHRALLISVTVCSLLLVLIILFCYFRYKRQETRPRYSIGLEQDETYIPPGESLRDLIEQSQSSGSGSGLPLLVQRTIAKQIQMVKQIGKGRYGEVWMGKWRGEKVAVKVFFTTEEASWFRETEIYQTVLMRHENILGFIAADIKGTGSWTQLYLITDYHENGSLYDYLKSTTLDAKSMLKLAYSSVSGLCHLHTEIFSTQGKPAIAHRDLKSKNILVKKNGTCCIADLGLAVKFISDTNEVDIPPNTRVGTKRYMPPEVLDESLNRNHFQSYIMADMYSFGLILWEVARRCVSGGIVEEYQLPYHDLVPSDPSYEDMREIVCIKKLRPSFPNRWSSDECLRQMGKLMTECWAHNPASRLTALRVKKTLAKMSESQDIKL
Experimental: as §1

[9] = biological target: T1, ALK2; assay: In-cell Western ALK2 assay (C2C12 cells, BMP6 as agonist); format: cell-based; conditions: read-out: BMP6 ICW
Text: 3. In-Cell Western ALK1 and ALK2 Assays in 384-Well Plate Format.
We also optimized cell-based In-cell Western assays for measurements of ALK1 and ALK2 activities that were used to determine compound activities in these two kinases. The cell lines and agonists used were same as described in above cell-based HTRF ALK1 and ALK2 assays. The initial cell plating and compound treatment were also same. The main difference is the detection of phosphorylation status of SMAD1. In t-cell Western assay, the cells were fixed and phosphorylation status of SMAD1 was detected by the ELISA instead of using the HTRF assay kit in above assay.
HyClone Fetal Bovine Serum was obtained from GE healthcare life sciences (Logan, Utah). BMP6 and BMP9 were purchased from R&D System (R&D). Anti-P-SMAD 1/5/8 rabbit mAb and anti-rabbit IgG, HRP-Linked antibody were purchased from Cell Signaling Technology (Danvers, Mass.). BioFX Chemiluminescent Ultra-Sensitive HRP Microwell Substrate ECL Reagent was obtained from SurModics (Edina, Minn.). The compound plates and the white solid MB assay plates were from Greiner Bio-one (Monroe, N.C.).
Similarly as described in above HTRF cell-based assay, this assay was performed in 384 well plate format. […] Pre-starved cells were then plated in 384 well plate in the starvation medium (containing in 0.1% FBS). After 4 hours, compound dilutions in DMSO were added to the assay plate and incubated for 30 minutes. The assay plate was then added with BMP6 for C2C12 cells or BMP9 for BAOEC cells and incubated for 30 minutes.
The cells were washed in the plate washer with PBS and blocked with 2% BSA in PBS for 1 h at room temperature on the rotator. After removing the blocking reagent, the cells were incubated with the anti-p-SMAD1 antibody in 2% BSA in PBS for overnight at 4° C. on rotator. The cells were washed with PBS in the plate washer and incubated with HRP conjugated second antibody in 2% BSA in PBS for 1 hour at room temperature. After a cell wash with PBS, ECL detection reagent was added and the plate was read in the luminesce mode in the ViewLux plate reader.

| Structure (SMILES) | IC50 [1] [nM] | IC50 [2] [nM] | IC50 [3] [nM] | IC50 [4] [nM] | IC50 [5] [nM] | IC50 [6] [nM] | IC50 [7] [nM] | IC50 [8] [nM] | IC50 [9] |
| --- | --- | --- | --- | --- | --- | --- | --- | --- | --- |
| NS(=O)(=O)c1cccc(-c2cnn3cc(-c4ccc(C5CCNCC5)cc4)cnc23)c1 [Compound 95, 3-(6-(4-(piperidin-4-yl)phenyl)pyrazolo[1,5-a]pyrimidin-3-yl)benzenesulfonamide] | 1500 | 64 | 520 | 79 | 9700 | > 10000 | > 10000 | > 10000 |  |
| CC(C)(CN1CCCCC1)Oc1ccc(-c2cnc3c(-c4cccc(S(N)(=O)=O)c4)cnn3c2)cc1 [Compound 96, 3-(6-(4-((2-methyl-1-(piperidin-1-yl)propan-2-yl)oxy)phenyl)pyrazolo[1,5-a]pyrimidin-3-yl)benzenesulfonamide] | 152 | 919 | 240 | 66 | 4900 | 6000 | > 10000 | > 10000 |  |
| CC(O)c1cccc(-c2cnn3cc(-c4ccc(CCN5CCCCC5)cc4)cnc23)c1 (stereo not shown) [Compound 97, 1-(3-(6-(4-(2-(piperidin-1-yl)ethyl)phenyl)pyrazolo[1,5-a]pyrimidin-3-yl)phenyl)ethanol] | 1160 | 1.2 | 510 | 99 | 3000 | > 10000 | > 10000 | > 10000 |  |
| CC(O)c1cccc(-c2cnn3cc(-c4ccc(C5CCNCC5)cc4)cnc23)c1 (stereo not shown) [Compound 98, 1-(3-(6-(4-(piperidin-4-yl)phenyl)pyrazolo[1,5-a]pyrimidin-3-yl)phenyl)ethanol] | 668 | 7000 | 310 | 72 | 3300 | > 10000 | > 10000 | > 10000 |  |
| CC(C)(O)c1cccc(-c2cnn3cc(-c4ccc(CCN5CCCCC5)cc4)cnc23)c1 [Compound 99, 2-(3-(6-(4-(2-(piperidin-1-yl)ethyl)phenyl)pyrazolo[1,5-a]pyrimidin-3-yl)phenyl)propan-2-ol] | 509 | 46000 | 250 | 43 | 2200 | > 10000 | > 10000 | > 10000 |  |
| CC(C)(O)c1cccc(-c2cnn3cc(-c4ccc(C5CCNCC5)cc4)cnc23)c1 [Compound 100, 2-(3-(6-(4-(piperidin-4-yl)phenyl)pyrazolo[1,5-a]pyrimidin-3-yl)phenyl)propan-2-ol] | 477 | > 100000 | 120 | 39 | 3300 | > 10000 | > 10000 | > 10000 |  |
| CC(C)(CN1CCCCC1)Oc1ccc(-c2cnc3c(-c4cccc(S(C)(=O)=O)c4)cnn3c2)cc1 [Compound 101, 6-(4-((2-methyl-1-(piperidin-1-yl)propan-2-yl)oxy)phenyl)-3-(3-(methylsulfonyl)phenyl)pyrazolo[1,5-a]pyrimidine] | 203 | 3280 | 67 | 28 | 2100 | 6000 | > 10000 | > 10000 |  |
| CS(=O)(=O)c1cccc(-c2cnn3cc(-c4ccc(C5CCNC5)cc4)cnc23)c1 (stereo not shown) [Compound 129, 3-(3-(methylsulfonyl)phenyl)-6-(4-(pyrrolidin-3-yl)phenyl)pyrazolo[1,5-a]pyrimidine] |  |  | 490 | 63 | > 10000 | > 10000 | > 10000 | > 10000 | 580 nM and 152 nM |
| CS(=O)(=O)c1cccc(-c2cnn3cc(-c4ccc(C5CCCCN5)cc4)cnc23)c1 (stereo not shown) [Compound 137, 3-(3-(methylsulfonyl)phenyl)-6-(4-(piperidin-2-yl)phenyl)pyrazolo[1,5-a]pyrimidine] |  |  | 250 | 75 | > 10000 | > 10000 | > 10000 | > 10000 | 150 nM and 250 nM |
